The experiment deals with PBMC (peripheral blood mononuclear cells). In kind it is cell-based, human. More on the design: key to IFN-γ response specificity mark (asterisk): *: Peptides that induced response in leprosy patients only, or contact groups (but not in TB or EC groups) appear with an asterisk. The following applies: for IFN-γ responses in groups TB and EC: PBMC of TB patients and endemic controls, day 5, cutoff 125 pg/ml; for IFN-γ responses in groups TB and EC / specificity of IFN-γ response (PB and HC versus TB, EC, NEC): 10 μg/ml; for IFN-γ response specificity mark (asterisk) / specificity of IFN-γ response (PB and HC versus TB, EC, NEC): PBMC, day 5; for IFN-γ response specificity mark (asterisk): peptide 10 μg/ml, leprosy patients/contacts vs TB and EC groups; for comparison of IFN-γ levels between groups (ANOVA, Tukey post hoc): PB, MB, HC, TB, EC.

“Also recorded” adds a separate entry of the source.

“MATIRTVRNLKLCNP [p37, M. leprae ML0008c aa 1-15]”: the “IFN-γ responses in groups TB and EC” value is “induced unexpected responses in groups EC or TB”.

In the case of “QVIFRDLTTQKAAEE [p66, M. leprae ML1419c aa 137-151]”, the “IFN-γ response specificity mark (asterisk)” value is “p66*”. The same measure, in the same setting: for “YGQVVRDVENTLRYL [p80, M. leprae ML0126 aa 125-139]” the value was “p80*”.

As for “LQAYSNLFGRTSAMQ [p92, M. leprae ML2452c aa 28-42]”, the “capacity to discriminate PB patients from exposed healthy individuals (HC)” value (from here on “capacity to discriminate PB patients”) is “discriminate individuals with known infection by Mycobacterium leprae (patients PB) from those individuals exposed to said microorganism, but healthy”; the “comparison of IFN-γ levels between groups (ANOVA, Tukey post hoc)” value (shortened to “comparison”) is reported as “induced the same kind of response”; the “IFN-γ response specificity mark (asterisk)” value is reported as “p92*”. “LQPYRLLRGGDSEYW [p75, M. leprae ML2177c aa 169-183]”: the “capacity to discriminate PB patients” value was “discriminate individuals with known infection by Mycobacterium leprae (patients PB) from those individuals exposed to said microorganism, but healthy”; the “comparison” value was “significantly higher in HC”; the “IFN-γ response specificity mark (asterisk)” value is recorded as “p75*”. In the case of “QLLGQTADV [p52, M. leprae ML1057 aa 59-67]”, the “specificity of IFN-γ response (PB and HC versus TB, EC, NEC)” value was “specific, inducing good responses in groups PB and HC, and no response in groups TB, EC or NEC”; the “IFN-γ response specificity mark (asterisk)” value is given as “p52*”. Take “VKAVVDDVNAILLTGR [p74, M. leprae ML1915 aa 89-104]”: the “IFN-γ response specificity mark (asterisk)” value is on record as “p74*”. On the same count and under the same terms, for “LDIYTTLARDMAAIP [p71, M. leprae ML1553 proS aa 180-194]” the value was “p71*”.

Turning to “THAFDLVLSSHLLFT [p57, M. leprae ML0308 aa 139-153]”, the “IFN-γ responses in groups TB and EC” value is “induced responses in individuals in groups TB and EC”. Take “LTVVVKQRSKAFRPS [p39, M. leprae ML0008c aa 24-38]”: the “IFN-γ response specificity mark (asterisk)” value was “p39*”. Turning to “SGRVTYLNPVGVKWM [p67, M. leprae ML1419c aa 51-65]”, the “capacity to discriminate PB patients” value is given as “discriminate individuals with known infection by Mycobacterium leprae (patients PB) from those individuals exposed to said microorganism, but healthy”; the “comparison” value is “higher in PB”; the “IFN-γ response specificity mark (asterisk)” value is on record as “p67*”. Turning to “LLEEGVIVL [p68, M. leprae ML1419c aa 267-275]”, the “capacity to discriminate PB patients” value was “discriminate individuals with known infection by Mycobacterium leprae (patients PB) from those individuals exposed to said microorganism, but healthy”; the “comparison” value is “induced the same kind of response”; the “IFN-γ response specificity mark (asterisk)” value was “p68*”. As for “LILGLLPAI [p61, M. leprae ML0398c aa 16-24]”, the “specificity of IFN-γ response (PB and HC versus TB, EC, NEC)” value is on record as “more specific than longer 15-mer peptide”; the “IFN-γ response specificity mark (asterisk)” value is “p61*”. Consider “VYLYNYLLAETSHVL [p86, M. leprae ML0840c aa 287-301]”, for which the “IFN-γ response specificity mark (asterisk)” value is reported as “p86*”. Same read-out and setting: the same measure for “DSTDTTDWSTAMTDA [p77, M. leprae ML2703 trxB aa 331-335]”: “p77*”; for “GINLPKDELTAFGRK [p63, M. leprae ML0757c aa 6-20]”: “p63*”. As for “RVSYGSECRSGNCLR [p40, M. leprae ML0008c aa 107-121]”, the “IFN-γ response specificity mark (asterisk)” value was “p40*”. In the case of “GNAMTTLGGRGISVV [p79, M. leprae ML0098 fbpC aa 84-98]”, the “IFN-γ responses in groups TB and EC” value was “induced responses in individuals in groups TB and EC; also recorded: most frequent responses in groups EC or TB”. For “QLMYLIEITSETKAL [p48, M. leprae ML0394c aa 22-36]”, the “IFN-γ response specificity mark (asterisk)” value was “p48*”. Turning to “LDDFLSLQRSISPNS [p42, M. leprae ML0126 aa 250-264]”, the “IFN-γ response specificity mark (asterisk)” value is recorded as “p42*”. Turning to “NHAVSSDFKTRSTNT [p54, M. leprae ML2567 aa 72-86]”, the “IFN-γ response specificity mark (asterisk)” value is “p54*”. Take “LNQLVSLVKQIFVQQ [p47, M. leprae ML0394c aa 73-87]”: the “IFN-γ response specificity mark (asterisk)” value is “p47*”. For “TIEFLWQEGHSAHIE [p72, M. leprae ML1553 proS aa 154-168]”, the “IFN-γ responses in groups TB and EC” value is “induced responses in individuals in groups TB and EC; also recorded: most frequent responses in groups EC or TB”.

For “DAEWLKLTSLGLRPR [p73, M. leprae ML1829 aa 108-122]”, the “IFN-γ response specificity mark (asterisk)” value is “p73*”. As to “AILYRKIHGQDPAER [p60, M. leprae ML0398c aa 288-302]”, the “IFN-γ responses in groups TB and EC” value was “induced responses in individuals in groups TB and EC”. On to “TRLLTVVVKQRSKAF [p38, M. leprae ML0008c aa 21-35]”, for which the “IFN-γ response specificity mark (asterisk)” value is “p38*”.

Turning to “GMDVGKVEALKIDGD [p93, M. leprae ML2591 mce1C aa 62-76]”, the “IFN-γ responses in groups TB and EC” value is on record as “most frequent responses in groups EC or TB”. As to “EAVLLRLDGTTLEVE [p65, M. leprae ML1419c aa 108-122]”, the “specificity of IFN-γ response (PB and HC versus TB, EC, NEC)” value is “specific, inducing good responses in groups PB and HC, and no response in groups TB, EC or NEC”; the “IFN-γ response specificity mark (asterisk)” value is “p65*”. In the case of “RLDGTTLEV [p69, M. leprae ML1419c aa 113-121]”, the “comparison” value is “significantly higher in HC (p=0.02) and in PB (p=0.01)”; the “specificity of IFN-γ response (PB and HC versus TB, EC, NEC)” value was “specific, inducing good responses in groups PB and HC, and no response in groups TB, EC or NEC”; the “IFN-γ response specificity mark (asterisk)” value was “p69*”. On to “DDIWRTLASAVITGN [p88, M. leprae ML1189c aa 55-69]”, for which the “IFN-γ response specificity mark (asterisk)” value is “p88*”.

Regarding “RRTVKILRPLPSNIT [p53, M. leprae ML2567 aa 95-109]”, the “IFN-γ response specificity mark (asterisk)” value was “p53*”. In the case of “KKRLTLLSGAMARRA [p82, M. leprae ML0394c aa 141-155]”, the “IFN-γ response specificity mark (asterisk)” value is given as “p82*”. Take “MQEYRGLTSHTPCCR [p70, M. leprae ML1420 aa 93-107]”: the “IFN-γ response specificity mark (asterisk)” value is “p70*”. Take “GDVWKSIVHLRSTRH [p81, M. leprae ML0126 aa 180-194]”: the “IFN-γ response specificity mark (asterisk)” value is reported as “p81*”. Still for that read-out and setting: for “FDEYRAMFALSAMDL [p56, M. leprae ML0308 aa 17-31]” the value was “p56*”. Consider “LATVQYDDRRRFTKE [p91, M. leprae ML2347 aa 301-315]”, for which the “capacity to discriminate PB patients” value is on record as “discriminate individuals with known infection by Mycobacterium leprae (patients PB) from those individuals exposed to said microorganism, but healthy”; the “comparison” value was “induced the same kind of response”; the “IFN-γ response specificity mark (asterisk)” value is recorded as “p91*”.

Take “DDFLSLQRSISPNSY [p44, M. leprae ML0126 aa 251-265]”: the “IFN-γ response specificity mark (asterisk)” value is “p44*”.

Regarding “VGKVQGLLARLLTLP [p76, M. leprae ML2498 aa 75-89]”, the “IFN-γ response specificity mark (asterisk)” value is “p76*”. On to “DATFQVIFSQHVHLS [p83, M. leprae ML0394c aa 97-111]”, for which the “IFN-γ response specificity mark (asterisk)” value is recorded as “p83*”. Take “GRYYAEINSAKMYFG [p49, M. leprae ML1057 aa 10-24]”: the “IFN-γ response specificity mark (asterisk)” value was “p49*”. Consider “AAALEQLLGQTADVA [p51, M. leprae ML1057 aa 54-68]”, for which the “specificity of IFN-γ response (PB and HC versus TB, EC, NEC)” value was “specific, inducing good responses in groups PB and HC, and no response in groups TB, EC or NEC”; the “IFN-γ response specificity mark (asterisk)” value is listed as “p51*”.

(Values after patent US20080146511A1, “SELECTION METHOD OF PEPTIDES, PEPTIDES, METHOD AND KIT OF INFECTION IDENTIFICATION BY MYCOBACTERIUM LEPRAE, PHARMACEUTICAL OR IMMUNOLOGICAL COMPOSITIONS CONTAINING PEPTIDES OF MYCOBACTERIUM LEPRAE OR SEQUENCES FUNCTIONALLY EQUIVALENT” (Fundacao Oswaldo Cruz - FIOCRUZ, priority 2006, published 2008).)
